Laboratory results: patent US20090202698A1, “OLIGOPEPTIDES FOR USE AS TASTE MODULATORS” (Nutrinova Nutrition Specialties & Food Ingredients GmbH, priority 2008, published 2009)

Biological target: T1, human T1R2/T1R3 taste receptor (Homo sapiens, UniProt Q7RTX0+Q8TE23)
T1 construct: the cDNA for the receptors ht1R2 and ht1R3 and the cDNA for the blasticidin S deaminase gene have been cloned; expressed in transfected cells; host or cells: HEK293 stably expressing mouse G-alpha-15, stably transfected with the tricistronic vector pTrix-Eb-R2R3 (blasticidin selection)
T1 sequence (Q8TE23 20-839): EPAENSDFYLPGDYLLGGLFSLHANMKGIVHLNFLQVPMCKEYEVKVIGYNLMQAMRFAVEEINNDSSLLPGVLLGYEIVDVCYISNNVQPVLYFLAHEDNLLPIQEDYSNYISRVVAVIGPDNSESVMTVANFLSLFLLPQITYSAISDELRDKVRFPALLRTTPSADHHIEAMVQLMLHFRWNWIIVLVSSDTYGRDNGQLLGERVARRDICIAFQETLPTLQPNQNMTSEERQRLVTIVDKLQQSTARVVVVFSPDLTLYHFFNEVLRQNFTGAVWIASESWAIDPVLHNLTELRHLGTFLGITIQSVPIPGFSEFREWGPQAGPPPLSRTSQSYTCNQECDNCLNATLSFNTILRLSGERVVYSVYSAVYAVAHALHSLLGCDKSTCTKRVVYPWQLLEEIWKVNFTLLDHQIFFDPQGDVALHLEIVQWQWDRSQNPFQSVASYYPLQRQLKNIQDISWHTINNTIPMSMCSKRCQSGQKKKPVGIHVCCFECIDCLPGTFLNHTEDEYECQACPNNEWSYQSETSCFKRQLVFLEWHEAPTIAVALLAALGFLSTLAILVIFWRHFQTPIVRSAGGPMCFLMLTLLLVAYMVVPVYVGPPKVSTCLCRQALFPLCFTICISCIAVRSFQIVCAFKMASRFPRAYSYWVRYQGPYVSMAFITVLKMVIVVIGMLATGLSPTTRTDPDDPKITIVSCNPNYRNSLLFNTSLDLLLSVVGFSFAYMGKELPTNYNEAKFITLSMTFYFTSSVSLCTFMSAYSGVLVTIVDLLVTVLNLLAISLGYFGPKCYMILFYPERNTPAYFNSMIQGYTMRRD
T1 sequence (Q7RTX0 21-852): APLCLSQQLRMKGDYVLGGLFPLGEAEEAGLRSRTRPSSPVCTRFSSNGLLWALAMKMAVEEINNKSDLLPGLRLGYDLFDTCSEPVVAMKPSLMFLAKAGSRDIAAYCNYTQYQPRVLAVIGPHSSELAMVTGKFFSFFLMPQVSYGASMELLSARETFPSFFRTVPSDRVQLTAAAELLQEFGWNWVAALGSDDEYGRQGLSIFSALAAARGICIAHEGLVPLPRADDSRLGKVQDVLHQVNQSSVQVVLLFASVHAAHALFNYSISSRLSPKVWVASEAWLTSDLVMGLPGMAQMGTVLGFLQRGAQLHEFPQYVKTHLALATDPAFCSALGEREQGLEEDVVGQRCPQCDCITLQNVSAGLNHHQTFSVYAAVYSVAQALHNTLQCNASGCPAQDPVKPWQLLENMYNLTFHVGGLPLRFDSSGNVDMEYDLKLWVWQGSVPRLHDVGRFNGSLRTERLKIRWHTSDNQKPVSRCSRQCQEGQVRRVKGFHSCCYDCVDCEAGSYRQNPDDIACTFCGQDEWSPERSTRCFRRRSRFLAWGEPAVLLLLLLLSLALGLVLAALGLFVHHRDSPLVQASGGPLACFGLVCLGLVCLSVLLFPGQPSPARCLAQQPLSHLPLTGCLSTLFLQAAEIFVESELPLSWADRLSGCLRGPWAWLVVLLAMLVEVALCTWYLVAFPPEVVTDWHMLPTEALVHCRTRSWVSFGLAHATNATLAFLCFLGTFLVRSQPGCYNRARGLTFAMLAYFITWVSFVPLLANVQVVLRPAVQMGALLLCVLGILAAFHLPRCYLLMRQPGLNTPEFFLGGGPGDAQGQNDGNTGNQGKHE
Experiment: Recombinant human T1R2/T1R3 taste receptor dependent calcium (Fluo-4 AM) cell based assay in stable HEK293 cells
Description: Fluo-4 AM assay with stable HEK293 cells—Stable cells are maintained in DMEM high-glucose medium (Invitrogen) supplemented with 10% fetal bovine serum (Biochrom) and 4 mM L-glutamine (Invitrogen). Cells for calcium imaging are maintained in DMEM low-glucose medium supplemented with 10% FBS and 1× Glutamax-1 (Invitrogen) for 48 hours before seeding. These stable cells are trypsinized after 48 hours (either with Trypsin-EDTA, Accutase or TrypLE) and seeded onto poly-D-lysine coated 96-well assay plates (Corning) at a density of 45,000 cells/well in DMEM low-glucose medium supplemented with 10% FBS and 1× Glutamax-1.
After 24 hours, the cells were loaded in 100 μl medium with additional 100 μl of 4 μM Fluo-4 (calcium sensing dye, 2 μM end concentration; Molecular Probes) in Krebs-HEPES (KH)-buffer for 1 hour. The loading reagent is then replaced by 80 μl KH-buffer per well. The Krebs-HEPES-buffer (KH-buffer) is a physiological saline solution including 1.2 mM CaCl2, 4.2 mM NaHCO3 and 10 mM HEPES.
The dye-loaded stable cells in plates were placed into a fluorescence microtiter plate reader to monitor fluorescence (excitation 488 nm, emission 520 nm) change after the addition of 20 μl KH-buffer supplemented with 5x tastants. For each trace, tastant was added 11.5 seconds after the start of the scan and mixed two times with the buffer, scanning continued for an additional 32 seconds, and data were collected every second.
Data analysis/Data recording—Calcium mobilization was quantified as the change of peak fluorescence OF) over the baseline level (F). Data were expressed as the mean S.E. of the )F/F value of replicated independent samples. The analysis was done with the software of the microtiter plate reader.
To analyze the function and activity of aladapcin the heterodimeric T1R2/T1R3 sweet taste receptor has been utilized in a calcium dependent cell based assay. T1R type taste receptors have been transfected with the multicistronic plasmid vector pTrix-Eb-R2R3 in a HEK293 cell line stably expressing the promiscuous mouse G-alpha-15 G-protein. […]

Row | SMILES | aladapcin activity on sweet taste receptors (activity as sweet enhancer): amplification of fructose (in the presence of 25 mM fructose, Fluo4-AM fluorescence increase, HEK293 cells expressing G-alpha-15, human T1R2 and T1R3, FIG. 2) | sweetener potential (receptor activation by the compound alone) (without the presence of fructose (control measurement), range 0.1-25 μm, FIG. 3) | activation of the sweet taste receptors by the sweetener alone (25 mM fructose (4.5 g/l), preexaminations)
1 | CC(NC(=O)C(C)NC(=O)C(N)CCCC(N)C(N)=O)C(=O)O (stereo not drawn) [Aladapcin, 2-[2-[(2,6-diamino-6-carbamoyl-hexanoyl)-amino]propanoylamino]propanoic acid] | dose dependent | no sweetener potential | –
2 | O=C(CO)[C@@H](O)[C@H](O)[C@H](O)CO [fructose, reference compound] | – | – | barely activating
